T1: CYP4A11 (Homo sapiens, UniProt Q02928)
T1 sequence (Q02928 5-519): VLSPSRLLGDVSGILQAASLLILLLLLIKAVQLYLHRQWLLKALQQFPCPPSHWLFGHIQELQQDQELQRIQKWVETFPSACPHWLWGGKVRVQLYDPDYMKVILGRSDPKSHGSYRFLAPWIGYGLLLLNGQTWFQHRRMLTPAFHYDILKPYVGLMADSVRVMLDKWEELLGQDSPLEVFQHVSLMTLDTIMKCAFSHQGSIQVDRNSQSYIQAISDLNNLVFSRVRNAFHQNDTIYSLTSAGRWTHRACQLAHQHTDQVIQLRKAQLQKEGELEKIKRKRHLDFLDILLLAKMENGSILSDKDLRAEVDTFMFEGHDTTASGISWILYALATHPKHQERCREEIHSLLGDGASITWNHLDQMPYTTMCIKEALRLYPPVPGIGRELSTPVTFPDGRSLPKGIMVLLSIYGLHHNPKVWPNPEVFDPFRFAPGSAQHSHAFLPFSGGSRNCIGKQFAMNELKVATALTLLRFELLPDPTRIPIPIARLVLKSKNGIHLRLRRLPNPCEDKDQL


Columns and labels:
CYP4A11 = molecular target: T1, CYP4A11; assay: inhibition of lauric acid omega-hydroxylation by CYP4A11 supersomes, HPLC-fluorescence, Lineweaver-Burk; assay type: biochemical
CYP2E1 = CYP2E1 (Oryctolagus cuniculus, UniProt P08682); assay: time- and concentration-dependent (mechanism-based) inactivation of 7-EFC O-deethylation, KI with kinact […] min^-1; assay type: biochemical; conditions: read-out: KI_inact
Sequence of CYP2E1 (P08682 whole entry): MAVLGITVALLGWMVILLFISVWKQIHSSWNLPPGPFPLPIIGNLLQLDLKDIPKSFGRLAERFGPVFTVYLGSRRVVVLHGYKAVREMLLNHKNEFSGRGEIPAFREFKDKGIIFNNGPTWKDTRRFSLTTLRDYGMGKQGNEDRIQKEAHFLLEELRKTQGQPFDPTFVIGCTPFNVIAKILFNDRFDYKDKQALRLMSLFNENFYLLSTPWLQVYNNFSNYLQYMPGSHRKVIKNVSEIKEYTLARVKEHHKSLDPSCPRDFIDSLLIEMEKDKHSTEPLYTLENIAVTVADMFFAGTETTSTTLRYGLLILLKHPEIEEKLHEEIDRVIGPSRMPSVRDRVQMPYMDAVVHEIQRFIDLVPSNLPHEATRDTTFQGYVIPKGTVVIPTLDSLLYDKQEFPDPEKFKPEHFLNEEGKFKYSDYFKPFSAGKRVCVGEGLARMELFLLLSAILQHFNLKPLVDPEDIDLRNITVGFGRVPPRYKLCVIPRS

[1] = substrate: CCCCCCCCCCCC(=O)O; assay: Michaelis-Menten kinetics of omega-hydroxylation by CYP4A11 supersomes (Km); assay type: biochemical, Homo sapiens; conditions: heme; NADPH

Molecule	Ki (CYP4A11)	KI (inactivation) (CYP2E1)	Km [1]
CCCCCCCCCCCCOC(=S)S [C12, potassium O-dodecyl carbonodithioate]	9 ± 1 µM	312 µM	–
CYP4A11 (Homo sapiens) (protein) VLSPSRLLGDVSGILQAASLLILLLLLIKAVQLYLHRQWLLKALQQFPCPPSHWLFGHIQELQQDQELQRIQKWVETFPSACPHWLWGGKVRVQLYDPDYMKVILGRSDPKSHGSYRFLAPWIGYGLLLLNGQTWFQHRRMLTPAFHYDILKPYVGLMADSVRVMLDKWEELLGQDSPLEVFQHVSLMTLDTIMKCAFSHQGSIQVDRNSQSYIQAISDLNNLVFSRVRNAFHQNDTIYSLTSAGRWTHRACQLAHQHTDQVIQLRKAQLQKEGELEKIKRKRHLDFLDILLLAKMENGSILSDKDLRAEVDTFMFEGHDTTASGISWILYALATHPKHQERCREEIHSLLGDGASITWNHLDQMPYTTMCIKEALRLYPPVPGIGRELSTPVTFPDGRSLPKGIMVLLSIYGLHHNPKVWPNPEVFDPFRFAPGSAQHSHAFLPFSGGSRNCIGKQFAMNELKVATALTLLRFELLPDPTRIPIPIARLVLKSKNGIHLRLRRLPNPCEDKDQL	–	–	11.8 µM
